Data published in ChEMBL document CHEMBL1909046, “DrugMatrix in vitro pharmacology data”.

Legend:
[1] = molecular target: T1, C-C chemokine receptor type 4 (Homo sapiens, UniProt P51679); assay type: cell membranes, Membrane; conditions: chem-1; further: in other assays of this panel Not Active means under 50% inhibition at 10 µM
T1 sequence (P51679 whole entry): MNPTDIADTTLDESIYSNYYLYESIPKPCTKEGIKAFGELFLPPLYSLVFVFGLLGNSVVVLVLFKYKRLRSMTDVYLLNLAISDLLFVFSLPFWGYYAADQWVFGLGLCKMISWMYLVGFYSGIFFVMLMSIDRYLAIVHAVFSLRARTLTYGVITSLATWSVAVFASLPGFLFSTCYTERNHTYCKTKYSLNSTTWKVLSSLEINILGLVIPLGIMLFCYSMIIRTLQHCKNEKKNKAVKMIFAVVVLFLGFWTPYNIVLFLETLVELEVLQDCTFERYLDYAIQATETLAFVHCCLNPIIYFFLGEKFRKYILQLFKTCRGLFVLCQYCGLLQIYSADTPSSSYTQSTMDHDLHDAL

[2] = DRUGMATRIX: Glutamate, Kainate radioligand binding (ligand: [3H] Kainic acid); assay type: cell membranes, Rattus norvegicus, Wistar, Brain, Membrane; conditions: Not Active = under 50% inhibition at 10 µM
[3] = molecular target: T2, Nitric oxide synthase, inducible (Mus musculus, UniProt P29477); parameters: species or system Escherichia coli;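 further: inhibition of iNOS enzyme activity measured with L-arginine as substrate; in other assays of this panel Not Active means under 50% inhibition at 10 µM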
T2 sequence (P29477 whole entry): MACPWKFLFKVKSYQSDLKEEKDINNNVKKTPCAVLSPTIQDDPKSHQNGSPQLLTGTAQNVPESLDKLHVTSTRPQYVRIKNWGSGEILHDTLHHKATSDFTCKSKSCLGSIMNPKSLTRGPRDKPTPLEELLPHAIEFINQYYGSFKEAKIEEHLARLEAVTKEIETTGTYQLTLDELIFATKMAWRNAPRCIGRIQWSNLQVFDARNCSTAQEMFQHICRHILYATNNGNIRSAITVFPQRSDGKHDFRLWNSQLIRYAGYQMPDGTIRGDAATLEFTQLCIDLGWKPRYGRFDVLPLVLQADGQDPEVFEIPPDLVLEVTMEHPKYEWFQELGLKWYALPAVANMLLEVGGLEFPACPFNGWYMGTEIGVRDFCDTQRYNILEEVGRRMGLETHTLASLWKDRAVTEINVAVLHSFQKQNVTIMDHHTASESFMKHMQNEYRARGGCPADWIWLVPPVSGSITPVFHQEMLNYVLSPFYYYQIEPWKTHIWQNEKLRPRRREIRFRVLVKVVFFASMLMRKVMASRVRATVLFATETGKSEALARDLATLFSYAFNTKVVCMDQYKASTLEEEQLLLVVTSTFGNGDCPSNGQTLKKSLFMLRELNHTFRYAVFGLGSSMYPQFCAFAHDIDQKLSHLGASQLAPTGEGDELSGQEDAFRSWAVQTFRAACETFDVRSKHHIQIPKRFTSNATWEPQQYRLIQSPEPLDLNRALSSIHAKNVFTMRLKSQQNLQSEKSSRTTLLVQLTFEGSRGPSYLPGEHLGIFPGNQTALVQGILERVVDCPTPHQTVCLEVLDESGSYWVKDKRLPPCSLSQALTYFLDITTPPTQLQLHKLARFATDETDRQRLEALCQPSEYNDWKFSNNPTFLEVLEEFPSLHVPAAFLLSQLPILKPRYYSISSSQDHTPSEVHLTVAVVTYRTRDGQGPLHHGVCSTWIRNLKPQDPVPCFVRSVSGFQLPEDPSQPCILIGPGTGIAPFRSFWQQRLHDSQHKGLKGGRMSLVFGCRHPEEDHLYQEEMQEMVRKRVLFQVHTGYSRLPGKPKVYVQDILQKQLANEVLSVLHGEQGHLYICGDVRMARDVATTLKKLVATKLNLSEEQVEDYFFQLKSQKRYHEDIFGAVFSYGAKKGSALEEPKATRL

[4] = DRUGMATRIX: Phorbol Ester radioligand binding (ligand: [3H] PDBu); assay type: cell membranes, Mus musculus, ICR, Brain, Membrane; conditions: Not Active = under 50% inhibition at 10 µM
Estrogen receptor beta = Estrogen receptor beta (Homo sapiens, UniProt Q92731); conditions: sf9; further: in other assays of this panel Not Active means under 50% inhibition at 10 µM
Sequence of Estrogen receptor beta (Q92731 whole entry): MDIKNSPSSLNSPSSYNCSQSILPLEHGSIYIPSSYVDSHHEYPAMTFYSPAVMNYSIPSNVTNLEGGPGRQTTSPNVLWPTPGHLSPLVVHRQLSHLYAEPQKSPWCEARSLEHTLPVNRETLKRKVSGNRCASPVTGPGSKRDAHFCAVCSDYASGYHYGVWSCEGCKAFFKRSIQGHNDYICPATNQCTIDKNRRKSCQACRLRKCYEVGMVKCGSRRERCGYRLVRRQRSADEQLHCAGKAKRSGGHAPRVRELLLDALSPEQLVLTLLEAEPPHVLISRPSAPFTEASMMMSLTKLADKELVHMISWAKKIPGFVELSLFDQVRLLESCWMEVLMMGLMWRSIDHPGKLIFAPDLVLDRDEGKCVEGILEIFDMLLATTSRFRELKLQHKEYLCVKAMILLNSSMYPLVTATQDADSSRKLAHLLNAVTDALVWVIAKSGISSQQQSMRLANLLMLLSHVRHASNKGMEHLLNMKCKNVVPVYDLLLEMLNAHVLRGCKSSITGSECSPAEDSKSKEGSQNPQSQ

[5] = molecular target: C-C chemokine receptor type 2 (Homo sapiens, UniProt P41597); assay type: cell membranes, CHO-K1, Membrane; conditions: cho-k1; further: in other assays of this panel Not Active means under 50% inhibition at 10 µM
Sequence of C-C chemokine receptor type 2 (P41597 whole entry): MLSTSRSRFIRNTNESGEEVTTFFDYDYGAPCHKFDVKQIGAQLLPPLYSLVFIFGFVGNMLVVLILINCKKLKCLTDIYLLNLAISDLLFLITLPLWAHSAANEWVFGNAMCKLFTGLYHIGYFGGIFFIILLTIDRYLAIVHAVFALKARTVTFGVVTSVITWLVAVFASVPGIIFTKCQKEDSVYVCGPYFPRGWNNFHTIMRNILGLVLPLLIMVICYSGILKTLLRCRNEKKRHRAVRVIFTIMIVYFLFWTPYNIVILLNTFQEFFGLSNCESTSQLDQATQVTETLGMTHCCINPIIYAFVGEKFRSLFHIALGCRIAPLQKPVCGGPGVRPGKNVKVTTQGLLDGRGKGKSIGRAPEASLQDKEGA

[6] = DRUGMATRIX: Glutamate, AMPA radioligand binding (ligand: [3H] AMPA); assay type: cell membranes, Rattus norvegicus, Wistar, Cerebral cortex, Membrane; conditions: Not Active = under 50% inhibition at 10 µM
[7] = molecular target: T3, Neuropeptide Y receptor type 1 (Homo sapiens, UniProt P25929); assay type: cell membranes, Membrane; conditions: sk-n-mc; further: in other assays of this panel Not Active means under 50% inhibition at 10 µM
T3 sequence (P25929 whole entry): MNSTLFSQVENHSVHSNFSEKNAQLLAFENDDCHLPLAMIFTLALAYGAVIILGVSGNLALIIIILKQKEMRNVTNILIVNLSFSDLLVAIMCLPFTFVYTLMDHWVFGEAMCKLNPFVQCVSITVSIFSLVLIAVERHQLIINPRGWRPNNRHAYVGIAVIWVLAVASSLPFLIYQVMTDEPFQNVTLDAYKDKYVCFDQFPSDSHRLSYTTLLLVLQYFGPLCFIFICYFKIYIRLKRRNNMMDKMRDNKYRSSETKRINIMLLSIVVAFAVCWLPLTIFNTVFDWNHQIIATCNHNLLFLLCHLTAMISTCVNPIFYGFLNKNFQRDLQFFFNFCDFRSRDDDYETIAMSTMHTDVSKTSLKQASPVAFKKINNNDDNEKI

Leukotriene C4 synthase = molecular target: T4, Leukotriene C4 synthase (Cavia porcellus, UniProt A6XA80); experiment: biochemical; assay type: tissue-based, Lung
T4 sequence (A6XA80 whole entry): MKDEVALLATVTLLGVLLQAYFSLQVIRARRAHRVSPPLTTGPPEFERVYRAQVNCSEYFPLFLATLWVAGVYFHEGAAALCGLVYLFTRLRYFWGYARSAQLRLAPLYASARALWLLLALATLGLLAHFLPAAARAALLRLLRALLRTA

[8] = molecular target: cGMP-specific 3',5'-cyclic phosphodiesterase (Homo sapiens, UniProt O76074); experiment: DRUGMATRIX: Phosphodiesterase PDE5 enzyme inhibition (substrate: [3H]cGMP + cGMP); assay type: tissue-based, Platelet; conditions: platelet; Not Active = under 50% inhibition at 10 µM
[9] = DRUGMATRIX: ATPase, Na+/K+ enzyme inhibition (substrate: ATP); assay type: tissue-based, Sus scrofa, Heart; conditions: Not Active = under 50% inhibition at 10 µM
Insulin receptor = Insulin receptor (Rattus norvegicus, UniProt P15127); assay type: cell membranes, Wistar, Liver, Membrane; further: in other assays of this panel Not Active means under 50% inhibition at 10 µM
Sequence of Insulin receptor (P15127 27-759 limits assumed): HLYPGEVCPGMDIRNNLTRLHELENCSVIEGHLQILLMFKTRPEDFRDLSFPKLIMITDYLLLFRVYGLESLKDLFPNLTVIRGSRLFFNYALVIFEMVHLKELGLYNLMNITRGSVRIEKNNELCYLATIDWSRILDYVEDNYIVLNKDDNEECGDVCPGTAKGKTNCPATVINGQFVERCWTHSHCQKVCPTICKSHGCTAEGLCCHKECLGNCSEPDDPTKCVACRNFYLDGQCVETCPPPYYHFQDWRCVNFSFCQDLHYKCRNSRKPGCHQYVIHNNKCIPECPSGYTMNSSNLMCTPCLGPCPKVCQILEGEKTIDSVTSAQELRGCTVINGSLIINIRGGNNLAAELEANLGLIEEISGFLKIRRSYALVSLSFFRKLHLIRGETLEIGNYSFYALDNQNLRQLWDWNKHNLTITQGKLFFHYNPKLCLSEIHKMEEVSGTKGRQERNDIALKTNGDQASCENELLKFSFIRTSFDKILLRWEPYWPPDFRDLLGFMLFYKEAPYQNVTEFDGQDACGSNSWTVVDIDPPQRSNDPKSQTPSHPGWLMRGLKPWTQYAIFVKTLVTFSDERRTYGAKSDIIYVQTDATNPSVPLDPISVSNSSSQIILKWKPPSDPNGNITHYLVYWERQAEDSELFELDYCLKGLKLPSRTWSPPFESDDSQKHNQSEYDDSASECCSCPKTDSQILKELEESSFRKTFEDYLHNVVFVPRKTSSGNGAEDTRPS
Sequence of Insulin receptor (P15127 764-1383 limits assumed): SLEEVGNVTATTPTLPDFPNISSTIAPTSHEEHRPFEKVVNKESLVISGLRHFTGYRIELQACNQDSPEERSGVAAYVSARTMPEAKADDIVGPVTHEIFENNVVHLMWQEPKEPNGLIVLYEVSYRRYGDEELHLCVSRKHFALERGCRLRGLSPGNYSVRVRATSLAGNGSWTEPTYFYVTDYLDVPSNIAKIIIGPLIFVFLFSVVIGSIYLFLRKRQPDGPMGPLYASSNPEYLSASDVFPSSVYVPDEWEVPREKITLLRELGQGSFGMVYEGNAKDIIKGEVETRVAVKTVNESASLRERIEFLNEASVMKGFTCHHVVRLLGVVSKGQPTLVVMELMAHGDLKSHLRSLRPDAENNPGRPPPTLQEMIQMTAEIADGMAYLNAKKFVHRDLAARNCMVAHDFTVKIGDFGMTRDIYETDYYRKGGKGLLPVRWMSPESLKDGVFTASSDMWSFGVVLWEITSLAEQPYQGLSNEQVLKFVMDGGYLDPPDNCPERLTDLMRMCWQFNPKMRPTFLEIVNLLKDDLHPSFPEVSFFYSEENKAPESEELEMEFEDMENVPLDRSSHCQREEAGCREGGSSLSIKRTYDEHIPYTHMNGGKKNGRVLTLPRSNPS

Neutrophil elastase = molecular target: T5, Neutrophil elastase (Homo sapiens, UniProt P08246); assay type: tissue-based
T5 sequence (P08246 whole entry): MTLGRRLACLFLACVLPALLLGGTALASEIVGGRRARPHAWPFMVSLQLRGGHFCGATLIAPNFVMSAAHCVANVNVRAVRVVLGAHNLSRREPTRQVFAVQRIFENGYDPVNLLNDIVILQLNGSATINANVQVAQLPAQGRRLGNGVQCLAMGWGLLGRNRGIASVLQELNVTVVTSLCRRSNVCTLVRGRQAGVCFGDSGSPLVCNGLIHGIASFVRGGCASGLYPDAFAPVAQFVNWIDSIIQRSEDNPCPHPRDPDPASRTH

CC[C@@]1(O)C(=O)OCc2c1cc1n(c2=O)Cc2cc3ccccc3nc2-1 [CAMPTOTHECIN]
Not Active: IC50 [1] | IC50 [2] | Ki [2] | IC50 [3] | IC50 [4] | Ki [4] | IC50 (Estrogen receptor beta) | IC50 [5] | IC50 [6] | Ki [6] | IC50 [7] | IC50 (Leukotriene C4 synthase) | IC50 [8] | IC50 [9] | Ki [9] | IC50 (Insulin receptor) | IC50 (Neutrophil elastase)

C=C1[C@@H]2CCC3[C@@](CC[C@@H]4[C@H](C(=O)O)C[C@@H](O[C@@H]5O[C@H](CO)[C@@H](OS(=O)(=O)[O-])[C@H](OS(=O)(=O)[O-])[C@H]5OC(=O)CC(C)C)C[C@@]34C)(C2)[C@@H]1O.[K+].[K+] (some centres undefined) [ATRACTYLOSIDE]
Not Active: IC50 [1] | IC50 [2] | Ki [2] | IC50 [3] | IC50 [4] | Ki [4] | IC50 (Estrogen receptor beta) | IC50 [5] | IC50 [6] | Ki [6] | IC50 [7] | IC50 (Leukotriene C4 synthase) | IC50 [8] | IC50 [9] | Ki [9] | IC50 (Insulin receptor) | IC50 (Neutrophil elastase)

C=C1CC[C@H](O)C/C1=C/C=C1\CCC[C@]2(C)[C@@H]([C@H](C)/C=C/[C@H](C)C(C)C)CC[C@@H]12 [ERGOCALCIFEROL]
Not Active: IC50 [1] | IC50 [2] | Ki [2] | IC50 [3] | IC50 [4] | Ki [4] | IC50 (Estrogen receptor beta) | IC50 [5] | IC50 [6] | Ki [6] | IC50 [7] | IC50 (Leukotriene C4 synthase) | IC50 [8] | IC50 [9] | Ki [9] | IC50 (Insulin receptor) | IC50 (Neutrophil elastase)

CCc1cccc2c3c([nH]c12)C(CC)(CC(=O)O)OCC3 (centres undefined) [ETODOLAC]
Not Active: IC50 [1] | IC50 [2] | Ki [2] | IC50 [3] | IC50 [4] | Ki [4] | IC50 (Estrogen receptor beta) | IC50 [5] | IC50 [6] | Ki [6] | IC50 [7] | IC50 (Leukotriene C4 synthase) | IC50 [8] | IC50 [9] | Ki [9] | IC50 (Insulin receptor) | IC50 (Neutrophil elastase)

CARBOPLATIN
Not Active: IC50 [1] | Ki [1] | IC50 [2] | Ki [2] | IC50 [3] | Ki [3] | IC50 [4] | Ki [4] | IC50 (Estrogen receptor beta) | Ki (Estrogen receptor beta) | IC50 [5] | Ki [5] | IC50 [6] | Ki [6] | IC50 [7] | Ki [7] | IC50 (Leukotriene C4 synthase) | Ki (Leukotriene C4 synthase) | IC50 [8] | Ki [8] | IC50 [9] | Ki [9] | IC50 (Insulin receptor) | Ki (Insulin receptor) | IC50 (Neutrophil elastase) | Ki (Neutrophil elastase)
